From ChEMBL document CHEMBL4411300 (Eur J Med Chem, 2019)
pIC50: −log10 of the molar value. Calls of active or inactive are those of the source. The rule behind the calls is not given here.

What was measured:
Trypanosoma cruzi [1] = assay: Trypanocidal activity against Trypanosoma cruzi TINF/CH/1956/Tulahuen DTU 6 amastigotes infected in African green monkey Vero cells after 72 hrs by Giemsa-staining based microscopic assay; type: functional, organism-based; conditions: TINF/CH/1956/Tulahuen DTU 6, Vero
[2] = Selectivity index, ratio of IC50 for African green monkey Vero cells to IC50 for Trypanosoma cruzi MHOM/Pe/2011/Arequipa DTU 5 trypomastigotes derived from infected Balb/c albino mouse; type: toxicity; conditions: read-out: Ratio IC50
[3] = Selectivity index, ratio of IC50 for African green monkey Vero cells to IC50 for Trypanosoma cruzi IRHOD/CO/2008/SN3 DTU 1 trypomastigotes derived from infected Balb/c albino mouse; type: toxicity; conditions: read-out: Ratio IC50
[4] = Selectivity index, ratio of IC50 for African green monkey Vero cells to IC50 for Trypanosoma cruzi TINF/CH/1956/Tulahuen DTU 6 epimastigotes; type: toxicity; conditions: read-out: Ratio IC50
[5] = Selectivity index, ratio of IC50 for African green monkey Vero cells to IC50 for Trypanosoma cruzi TINF/CH/1956/Tulahuen DTU 6 trypomastigotes derived from infected Balb/c albino mouse; type: toxicity; conditions: read-out: Ratio IC50
Trypanosoma cruzi [6] = assay: Trypanocidal activity against Trypanosoma cruzi MHOM/Pe/2011/Arequipa DTU 5 amastigotes infected in African green monkey Vero cells assessed as reduction in infected cells after 72 hrs by Giemsa-staining based assay; type: functional, organism-based; conditions: MHOM/Pe/2011/Arequipa DTU 5, Vero
Trypanosoma cruzi [7] = assay: Antitrypanosomal activity against Trypanosoma cruzi MHOM/Pe/2011/Arequipa DTU 5 trypomastigotes infected in Balb/c mouse assessed as parasite-free adipose tissue at 20 mg/kg, po pretreated once daily for 5 consecutive days starting from day 75 post infection followed by cyclophosphamide-induced immunosuppression on day 100 post infection every 4 days for a maximum of 3 doses measured on day 127 post infection by PCR method; type: functional
Trypanosoma cruzi [8] = assay: Antitrypanosomal activity against Trypanosoma cruzi MHOM/Pe/2011/Arequipa DTU 5 trypomastigotes infected in Balb/c mouse assessed as reduction in Ig-G level in serum at 20 mg/kg, po once daily for 5 consecutive days starting from day 10 post infection measured on day 16 post infection by ELISA; type: functional, organism-based
Trypanosoma cruzi [9] = assay: Antitrypanosomal activity against Trypanosoma cruzi MHOM/Pe/2011/Arequipa DTU 5 trypomastigotes infected in Balb/c mouse assessed as reduction in splenomegaly at 20 mg/kg, po once daily for 5 consecutive days starting from day 10 post infection measured on day 127 post infection; type: functional, organism-based
Trypanosoma cruzi [10] = assay: Antitrypanosomal activity against Trypanosoma cruzi MHOM/Pe/2011/Arequipa DTU 5 trypomastigotes infected in Balb/c mouse assessed as reduction in splenomegaly at 20 mg/kg, po once daily for 5 consecutive days starting from day 75 post infection measured on day 127 post infection; type: functional, organism-based
Trypanosoma cruzi [11] = assay: Antitrypanosomal activity against Trypanosoma cruzi MHOM/Pe/2011/Arequipa DTU 5 epimastigotes assessed as effect on parasite glycolytic pathway by measuring decrease in D-lactate excretion at IC25 after 72 hrs by 1H NMR method; type: functional, organism-based
Trypanosoma cruzi [12] = assay: Antitrypanosomal activity against Trypanosoma cruzi MHOM/Pe/2011/Arequipa DTU 5 epimastigotes assessed as change in mitochondrial membrane potential at IC25 after 72 hrs by Rho123 staining based flow cytometry relative to control; type: functional
Trypanosoma cruzi [13] = assay: Induction of […] Trypanosoma cruzi MHOM/Pe/2011/Arequipa DTU 5 epimastigotes assessed as inhibition of DNA and RNA levels at IC25 after 72 hrs by acridine orange staining based flow cytometry relative to control; type: functional
[14] = Inhibition of Trypanosoma cruzi MHOM/Pe/2011/Arequipa DTU 5 epimastigotes Fe-SOD by UV-Visible spectrophotometric method
[15] = Nephrotoxicity in Balb/c mouse infected with Trypanosoma cruzi MHOM/Pe/2011/Arequipa DTU 5 trypomastigotes assessed as decrease in serum urea level at 20 mg/kg, po once daily for 5 consecutive days starting from day 10 post infection measured on day 16 post infection relative to control; type: toxicity, organism-based; design: scale not given: the % may be the effect or the level left; conditions: in vivo
[16] = Nephrotoxicity in Balb/c mouse infected with Trypanosoma cruzi MHOM/Pe/2011/Arequipa DTU 5 trypomastigotes assessed as decrease in serum urea level at 20 mg/kg, po once daily for 5 consecutive days starting from day 75 post infection measured on day 81 post infection relative to control; type: toxicity, organism-based; design: scale not given: the % may be the effect or the level left; conditions: in vivo
[17] = Nephrotoxicity in Balb/c mouse infected with Trypanosoma cruzi MHOM/Pe/2011/Arequipa DTU 5 trypomastigotes assessed as decrease in serum urea level at 20 mg/kg, po once daily for 5 consecutive days starting from day 75 post infection measured on day 127 post infection relative to control; type: toxicity, organism-based; design: scale not given: the % may be the effect or the level left; conditions: in vivo
[18] = Nephrotoxicity in Balb/c mouse infected with Trypanosoma cruzi MHOM/Pe/2011/Arequipa DTU 5 trypomastigotes assessed as decrease in serum uric acid level at 20 mg/kg, po once daily for 5 consecutive days starting from day 10 post infection measured on day 16 post infection relative to control; type: toxicity, organism-based; design: scale not given: the % may be the effect or the level left; conditions: in vivo
[19] = Nephrotoxicity in Balb/c mouse infected with Trypanosoma cruzi MHOM/Pe/2011/Arequipa DTU 5 trypomastigotes assessed as serum uric acid level at 20 mg/kg, po once daily for 5 consecutive days starting from day 10 post infection measured on day 127 post infection (reference value: 4 mg/dl); type: toxicity, organism-based; conditions: in vivo
[20] = Nephrotoxicity in Balb/c mouse infected with Trypanosoma cruzi MHOM/Pe/2011/Arequipa DTU 5 trypomastigotes assessed as decrease in serum uric acid level at 20 mg/kg, po once daily for 5 consecutive days starting from day 75 post infection measured on day 81 post infection relative to control; type: toxicity, organism-based; design: scale not given: the % may be the effect or the level left; conditions: in vivo
[21] = (§1) Cardiotoxicity in Balb/c mouse infected with Trypanosoma cruzi MHOM/Pe/2011/Arequipa DTU 5 trypomastigotes assessed as change in ratio of creatine kinase in muscle to brain at 20 mg/kg, po once daily for 5 consecutive days starting from day 10 post infection measured on day 127 post infection by biochemical analysis (reference value: 496 U/L); type: toxicity, organism-based; conditions: in vivo
[22] = as §1, with “75” for “10”, “infection” for “infection by biochemical analysis”, “538” for “496”; type: toxicity, organism-based; conditions: in vivo
[23] = as §1, with “serum LDH level” for “ratio of creatine kinase in muscle to brain”, “2761” for “496”; type: toxicity, organism-based; conditions: in vivo
[24] = Hepatotoxicity in Balb/c mouse infected with Trypanosoma cruzi MHOM/Pe/2011/Arequipa DTU 5 trypomastigotes assessed as increase in ratio of serum AST to GOT level at 20 mg/kg, po once daily for 5 consecutive days starting from day 10 post infection measured on day 127 post infection by biochemical analysis relative to control; type: toxicity, organism-based; conditions: in vivo
[25] = Hepatotoxicity in Balb/c mouse infected with Trypanosoma cruzi MHOM/Pe/2011/Arequipa DTU 5 trypomastigotes assessed as increase in total bilirubin level at 20 mg/kg, po once daily for 5 consecutive days starting from day 10 post infection measured on day 16 post infection relative to control; type: toxicity, organism-based; conditions: in vivo
[26] = Hepatotoxicity in Balb/c mouse infected with Trypanosoma cruzi MHOM/Pe/2011/Arequipa DTU 5 trypomastigotes assessed as increase in total bilirubin level at 20 mg/kg, po once daily for 5 consecutive days starting from day 10 post infection measured on day 127 post infection by biochemical analysis relative to control; type: toxicity, organism-based; conditions: in vivo
[27] = Hepatotoxicity in Balb/c mouse infected with Trypanosoma cruzi MHOM/Pe/2011/Arequipa DTU 5 trypomastigotes assessed as increase in alkaline phosphatase level at 20 mg/kg, po once daily for 5 consecutive days starting from day 10 post infection measured on day 16 post infection relative to control; type: toxicity, organism-based; conditions: in vivo
[28] = as §1, with “16” for “127”, “535” for “496”; type: toxicity, organism-based; conditions: in vivo

Row | Compound | pIC50 (Trypanosoma cruzi [1]) | selectivity ratio [2] | selectivity ratio [3] | Activity (Trypanosoma cruzi [9]) | Activity (Trypanosoma cruzi [10]) | Activity (Trypanosoma cruzi [12]) | inhibition (INH) (Trypanosoma cruzi [13]) | Activity [15] | Activity [16] | Activity [17] | Activity [18] | Activity [19] | Activity [20] | Activity [21] | Activity [22] | Activity [23] | Activity [24] | Activity [25] | Activity [26] | Activity [27] | further results
1 | Cl.Cl.Cl.NCCN(CCN)CCNCc1ccc2c(c1)Cc1ccccc1-2 | 4.82 | 120 | 142 | Active | Active | 7.6% | 18.3% | <= 10% | <= 10% | <= 10% | <= 10% | 4 mg/dL | <= 10% | 496 U/L | 538 U/L | 2761 U/L | <= 30% | <= 30% | <= 10% | <= 20% | selectivity ratio [4]: 57.5; selectivity ratio [5]: 100; pIC50 (Trypanosoma cruzi [6]): 5.10; Activity (Trypanosoma cruzi [7]): 16.3%; Activity (Trypanosoma cruzi [8]): Active; Activity (Trypanosoma cruzi [11]): Active; pIC50 [14]: 4.24
2 | Cl.Cl.Cl.Cl.Cl.Cl.c1ccc2nc(CNCCN(CCNCc3ccc4ccccc4n3)CCNCc3ccc4ccccc4n3)ccc2c1 | 5.64 | 1360 | 1560 | Active | Active | -73.6% | 56.7% | <= 10% | <= 10% | <= 10% | <= 10% | 4 mg/dL | <= 10% | 496 U/L | 538 U/L | 2761 U/L | <= 10% | <= 30% | <= 10% | <= 10% | selectivity ratio [4]: 84.8; selectivity ratio [5]: 890; pIC50 (Trypanosoma cruzi [6]): 5.44; Activity (Trypanosoma cruzi [8]): inactive; Activity (Trypanosoma cruzi [11]): Active; pIC50 [14]: 4.54; Activity [28]: 535 U/L
3 | O=C(Cn1ccnc1[N+](=O)[O-])NCc1ccccc1 [BENZNIDAZOLE] |  |  |  | Active | Active | -35.4% | 22.4% | <= 10% | <= 10% | <= 10% | <= 10% | 4 mg/dL | <= 10% | 496 U/L | 538 U/L | 2761 U/L | > 40% | <= 20% | <= 10% | <= 20% | Activity (Trypanosoma cruzi [7]): 51.2%; Activity [28]: 535 U/L
